# Ends that are not written are not given here.
# Legend:
# [1] = molecular target: T1, ACE C-domain (Homo sapiens, UniProt P12821); settings: lower for C-domain; cited from earlier work
# T1 construct: with a dissociation constant more than 3 orders of magnitude lower for the ACE C-domain than the N-domain
# [2] = cited from earlier work
# [3] = system: cytokine expression; assay: cytokine expression with ACE inhibitor, ACE7 (N-terminus KO) vs wild type (FIG. 11); format: cell-based, mouse; settings: ACE7 (N-terminus KO) and wild type
# Method: (§1) To obtain large numbers of macrophages, N-KO, C-KO and WT mice were injected intraperitoneally with thioglycolate. After four days, cells were collected, washed and counted. Aliquots of 1×10^6 cells were adhered in 24 well plates. After 2 hrs, non-adherent cells were removed and the plates were visually evaluated to verify that wells contained nearly identical numbers of adherent cells. Media containing 1 ug/ml of LPS (a model activator of macrophages) was then added. After 24 hrs, supernatants were collected and the concentrations of TNF-α and IL-12p40 (one of the 2 proteins comprising IL-12) were determined by ELISA (eBioscience). However, there was a marked difference in cytokine expression profile; macrophages derived from N-KO mice producing far more TNF- a and IL-12p40 than either C-KO or WT mice (p values for TNF-α: N-KO vs. C-KO or WT, p<0.001; p values for IL12p40: N-KO vs. C-KO or WT, p<0.02). Further, there was a clear trend of macrophages from C-KO mice producing less cytokines than wild-type cells (TNF- a: C-KO vs. WT, p<0.07; IL12p40: C-KO vs. WT, p<0.02). Thus, in the absence of ACE N-terminal catalytic activity, TNF-α and IL-12 cytokine expression was increased. In the absence of C-terminal catalytic activity, there is a strong reduction of production of these cytokines. […]
# [4] = system: TNF; assay: TNF with AT1R inhibitor, ACE7 (N-terminus KO) vs wild type (FIG. 12); format: cell-based, mouse; settings: ACE7 (N-terminus KO) and wild type
# Method: FIG. 12 depicts, in accordance with an embodiment of the present invention, AT1R inhibitor losartan can lower TNF, but cannot eliminate the difference between ACE7 (N-terminus KO) and wild type.
# as §1, with “increased.” for “increased. In the absence of C-terminal catalytic activity, there is a strong reduction of production of these cytokines.”
# [5] = molecular target: AcSDAcKP (synthetic ACE substrate); assay: cell-based or functional assay
# [6] = molecular target: Hip-His-Leu (HHL) (synthetic ACE substrate); assay: cell-based or functional assay
# [7] = system: angiotensin II-induced hypertension; settings: secondary to angiotensin II-induced hypertension; cited from earlier work
# [8] = system: Smad2; settings: cited from earlier work
# [9] = system: cardiac fibroblasts; settings: cited from earlier work
# [10] = system: aldosterone-salt hypertension; settings: cited from earlier work
# [11] = system: macrophages; settings: cited from earlier work
# [12] = system: 2-kidney, 1-clip hypertensive rats; settings: osmotic mini-pump; cited from earlier work
# T1 sequence (P12821 643-1222 limits assumed): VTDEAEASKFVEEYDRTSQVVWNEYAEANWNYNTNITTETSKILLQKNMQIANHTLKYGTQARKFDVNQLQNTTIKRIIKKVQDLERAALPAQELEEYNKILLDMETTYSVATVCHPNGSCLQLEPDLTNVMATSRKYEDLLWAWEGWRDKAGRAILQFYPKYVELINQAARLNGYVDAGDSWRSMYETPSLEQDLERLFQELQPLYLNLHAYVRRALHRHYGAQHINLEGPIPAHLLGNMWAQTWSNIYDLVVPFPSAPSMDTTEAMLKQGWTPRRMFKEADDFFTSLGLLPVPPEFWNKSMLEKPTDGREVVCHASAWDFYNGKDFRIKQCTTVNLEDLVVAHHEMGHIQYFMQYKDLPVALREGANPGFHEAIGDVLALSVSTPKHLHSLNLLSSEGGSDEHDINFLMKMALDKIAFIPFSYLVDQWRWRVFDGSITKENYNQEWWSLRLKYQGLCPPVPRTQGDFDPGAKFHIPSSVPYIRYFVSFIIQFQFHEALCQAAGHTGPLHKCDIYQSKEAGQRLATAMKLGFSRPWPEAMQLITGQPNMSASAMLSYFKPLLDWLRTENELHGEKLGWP
molecule,measurement,setting,value
O=C(NC(Cc1ccccc1)P(=O)(O)C1CCCC1C(=O)NC(Cc1c[nH]c2ccccc12)C(=O)O)OCc1ccccc1 (centres unmarked) [RXPA 380],dissociation constant for the ACE C-domain relative to the N-domain,[1],more than 3 orders of magnitude
same,effectiveness in mice,[2]; mice,effective
same,stability in vivo,"[2]; mouse, in vivo",stable
NCCCC[C@H](N[C@@H](CCc1ccccc1)C(=O)O)C(=O)N1CCC[C@H]1C(=O)O [lisinopril],cytokine expression,[3],can lower cytokine expression
CCCCc1nc(Cl)c(CO)n1Cc1ccc(-c2ccccc2-c2nn[nH]n2)cc1 [losartan],TNF,[4],can lower TNF
ACE of ACE 7/7 (N-KO) mice: mouse angiotensin converting enzyme with the N-terminal catalytic site inactivated (HEMGH motif converted to KEMGK) (from UniProt P09470 35-1237),catalytic activity of plasma (cleavage efficiency against wild-type mice) (% of wild-type efficiency),[5],3
ACE of ACE 13/13 (C-KO) mice: mouse angiotensin converting enzyme with the C-terminal catalytic site inactivated (histidines of HEMGH mutated to lysines) (from UniProt P09470 35-1237),catalytic activity of plasma (hydrolysis efficiency against wild-type mice) (% of wild-type efficiency),[6],18
"Acetyl-SerAspLysPro (Ac-SDKP) [AcSDKP, tetrapeptide cleaved from thymosin-β4 by prolyl oligopeptidase]",aortic fibrosis,[7],reduced aortic fibrosis
same,TGF-β1 stimulated phosphorylation of Smad2,[8],inhibits
same,growth of cardiac fibroblasts,[9],inhibits the growth of cardiac fibroblasts
same,collagen deposition and cell proliferation in the heart and kidney,[10],prevented increased collagen deposition and cell proliferation
same,macrophage production of TNF,[11],reducing macrophage production of TNF
same,blood pressure,[12],no effect on blood pressure
same,development of fibrosis in the heart,[12],prevented the development of fibrosis in the heart
